Experimental data: patent US10443082B2, “Concentration gradient test reagent kit and testing method for use in bacterial/fungal drug susceptibility testing” (XINTRUM PHARMACEUTICALS, LTD, priority 2014, dated 2019)
Values after ≈ are worked out from the molar mass of the structure shown.

Experiments:
Format in all cases: cell-based
Streptococcus pneumoniae [1] = assay: MIC assay, concentration gradient agar strip method
Description: (§1) Combination of the pre-fabricated antimicrobial drug and pre-fabricated culture medium to form a test strip unit: the films are removed from the bottom and top of the culture medium container, and the cells of the culture medium container can be inserted into the corresponding cells of the drug container. Then, the drug container is covered with a lid, and the pressure created in the process causes the antimicrobial drug at the bottoms of the cells to come into contact with the solid culture medium, and therefore dissolved in the agar culture medium to reach a specific concentration. To use the solid culture medium, a bacterial culture solution can be applied on the upper surface of the solid culture medium in each cell of the culture medium container. Then the culture medium container is covered with a lid, and then kept at 35° C. for 16-20 hours before the culture result is visually checked. When the drug concentration is higher than the MIC for the bacteria, no bacteria is observed on the surface of the gel. When the drug concentration is lower than the MIC, the bacteria grows on the surface of the culture medium and eventually develops a bacterial colony thereon. The lowest drug concentration at which no bacteria is observed on the gel surface is considered as the MIC of the antimicrobial drug for the strain under test.
(§2) This embodiment still uses a drug container with 12 round cells, and each round cell has internal dimensions of 4 mm×6 mm (bottom's radius×height). However, the experimental strains in use are Streptococcus pneumoniae. […] The bacterial lawn on the drug-free control agar blocks is expected to grow well; and • 8) performing an MIC assay on the test strains with the tube broth dilution method.

Streptococcus pneumoniae [2] = assay: MIC assay, tube broth dilution method; settings: read-out: MIC, Concentration (tube broth dilution method)
Description: as §2

Proteus mirabilis [3] = assay: MIC assay, tube broth dilution method; settings: Strain No. 27 Proteus mirabilis; read-out: MIC, Concentration (tube broth dilution method)
Description: (§3) A concentration gradient measurement method for use in bacterial/fungal drug susceptibility testing is provided. […] The bacterial lawn on the drug-free control agar blocks is expected to grow well; and • 8) in the meantime, performing an MIC assay on the test strains with tube broth dilution method.

Klebsiella pneumoniae [4] = assay: MIC assay, tube broth dilution method; settings: read-out: MIC, Concentration (tube broth dilution method)
Description: as §3

Escherichia coli [5] = assay: MIC assay, tube broth dilution method; settings: read-out: MIC, Concentration (tube broth dilution method)
Description: as §3

Klebsiella oxytoca [6] = assay: MIC assay, tube broth dilution method
Description: as §3

Enterobacter cloacae [7] = assay: MIC assay, tube broth dilution method
Description: as §3

Proteus mirabilis [8] = assay: MIC assay, concentration gradient agar strip method; settings: Strain No. 27 Proteus mirabilis
Description: as §1, §3

Klebsiella pneumoniae [9] = assay: as above
Description: as §1, §3

Escherichia coli [10] = assay: as above
Description: as §1, §3

Klebsiella oxytoca [11] = assay: as above
Description: as §1, §3

Enterobacter cloacae [12] = assay: as above
Description: as §1, §3

[13] = Strain No. 1 Streptococcus pneumoniae
[14] = Strain No. 2 Streptococcus pneumoniae
[15] = Strain No. 3 Streptococcus pneumoniae
[16] = Strain No. 4 Streptococcus pneumoniae
[17] = Strain No. 5 Streptococcus pneumoniae
[18] = Strain No. 6 Streptococcus pneumoniae
[19] = Strain No. 7 Streptococcus pneumoniae
[20] = Strain No. 8 Streptococcus pneumoniae
[21] = Strain No. 9 Streptococcus pneumoniae
[22] = Strain No. 10 Streptococcus pneumoniae
[23] = Strain No. 11 Streptococcus pneumoniae
[24] = Strain No. 12 Streptococcus pneumoniae
[25] = Strain No. 13 Streptococcus pneumoniae
[26] = Strain No. 14 Streptococcus pneumoniae
[27] = Strain No. 15 Streptococcus pneumoniae
[28] = Strain No. 16 Streptococcus pneumoniae
[29] = Strain No. 17 Streptococcus pneumoniae
[30] = Strain No. 18 Streptococcus pneumoniae
[31] = Strain No. 19 Streptococcus pneumoniae
[32] = Strain No. 20 Streptococcus pneumoniae
[33] = Strain No. 1 Klebsiella pneumoniae
[34] = Strain No. 2 Klebsiella pneumoniae
[35] = Strain No. 3 Klebsiella pneumoniae
[36] = Strain No. 4 Klebsiella pneumoniae
[37] = Strain No. 5 Klebsiella pneumoniae
[38] = Strain No. 6 Klebsiella pneumoniae
[39] = Strain No. 7 Klebsiella pneumoniae
[40] = Strain No. 8 Klebsiella pneumoniae
[41] = Strain No. 18 Klebsiella pneumoniae
[42] = Strain No. 21 Klebsiella pneumoniae
[43] = Strain No. 24 Klebsiella pneumoniae
[44] = Strain No. 25 Klebsiella oxytoca
[45] = Strain No. 29 Enterobacter cloacae

CC1(C)S[C@@H]2[C@H](NC(=O)[C@H](N)c3ccc(O)cc3)C(=O)N2[C@H]1C(=O)O [Amoxicillin]
MIC (Streptococcus pneumoniae [1]; [13]): 0.12 mg/L | MIC (Streptococcus pneumoniae [1]; [14]): 0.12 mg/L | MIC (Streptococcus pneumoniae [1]; [15]): 0.25 mg/L | MIC (Streptococcus pneumoniae [1]; [16]): 0.25 mg/L | MIC (Streptococcus pneumoniae [1]; [17]): 0.5 mg/L | MIC (Streptococcus pneumoniae [1]; [18]): 0.12 mg/L | MIC (Streptococcus pneumoniae [1]; [19]): 0.25 mg/L | MIC (Streptococcus pneumoniae [1]; [20]): 1 mg/L | MIC (Streptococcus pneumoniae [1]; [21]): 0.25 mg/L | MIC (Streptococcus pneumoniae [1]; [22]): 2 mg/L | MIC (Streptococcus pneumoniae [1]; [23]): 0.12 mg/L | MIC (Streptococcus pneumoniae [1]; [24]): 0.06 mg/L | MIC (Streptococcus pneumoniae [1]; [25]): 0.06 mg/L | MIC (Streptococcus pneumoniae [1]; [26]): 2 mg/L | MIC (Streptococcus pneumoniae [1]; [27]): 0.12 mg/L | MIC (Streptococcus pneumoniae [1]; [28]): 0.12 mg/L | MIC (Streptococcus pneumoniae [1]; [29]): 1 mg/L | MIC (Streptococcus pneumoniae [1]; [30]): 0.5 mg/L | MIC (Streptococcus pneumoniae [1]; [31]): 0.25 mg/L | MIC (Streptococcus pneumoniae [1]; [32]): 0.12 mg/L | MIC (Streptococcus pneumoniae [2]; [13]): 0.12 mg/L (≈ 0.328 µM) | MIC (Streptococcus pneumoniae [2]; [14]): 0.12 mg/L (≈ 0.328 µM) | MIC (Streptococcus pneumoniae [2]; [15]): 0.12 mg/L (≈ 0.328 µM) | MIC (Streptococcus pneumoniae [2]; [16]): 0.25 mg/L (≈ 0.684 µM) | MIC (Streptococcus pneumoniae [2]; [17]): 0.5 mg/L (≈ 1.37 µM) | MIC (Streptococcus pneumoniae [2]; [18]): 0.12 mg/L (≈ 0.328 µM) | MIC (Streptococcus pneumoniae [2]; [19]): 0.25 mg/L (≈ 0.684 µM) | MIC (Streptococcus pneumoniae [2]; [20]): 0.5 mg/L (≈ 1.37 µM) | MIC (Streptococcus pneumoniae [2]; [21]): 0.25 mg/L (≈ 0.684 µM) | MIC (Streptococcus pneumoniae [2]; [22]): 2 mg/L (≈ 5.47 µM) | MIC (Streptococcus pneumoniae [2]; [23]): 0.12 mg/L (≈ 0.328 µM) | MIC (Streptococcus pneumoniae [2]; [24]): 0.06 mg/L (≈ 0.164 µM) | MIC (Streptococcus pneumoniae [2]; [25]): 0.12 mg/L (≈ 0.328 µM) | MIC (Streptococcus pneumoniae [2]; [26]): 2 mg/L (≈ 5.47 µM) | MIC (Streptococcus pneumoniae [2]; [27]): 0.12 mg/L (≈ 0.328 µM) | MIC (Streptococcus pneumoniae [2]; [28]): 0.12 mg/L (≈ 0.328 µM) | MIC (Streptococcus pneumoniae [2]; [29]): 1 mg/L (≈ 2.74 µM) | MIC (Streptococcus pneumoniae [2]; [30]): 1 mg/L (≈ 2.74 µM) | MIC (Streptococcus pneumoniae [2]; [31]): 0.12 mg/L (≈ 0.328 µM) | MIC (Streptococcus pneumoniae [2]; [32]): 0.12 mg/L (≈ 0.328 µM)

CO/N=C(\C(=O)N[C@@H]1C(=O)N2C(C(=O)O)=C(COC(C)=O)CS[C@H]12)c1csc(N)n1 [Cefotaxime]
MIC (Proteus mirabilis [3]): 4 mg/L (≈ 8.78 µM) | MIC (Klebsiella pneumoniae [4]; [33]): 4 mg/L (≈ 8.78 µM) | MIC (Klebsiella pneumoniae [4]; [34]): 4 mg/L (≈ 8.78 µM) | MIC (Klebsiella pneumoniae [4]; [35]): 2 mg/L (≈ 4.39 µM) | MIC (Klebsiella pneumoniae [4]; [36]): 2 mg/L (≈ 4.39 µM) | MIC (Klebsiella pneumoniae [4]; [37]): 2 mg/L (≈ 4.39 µM) | MIC (Klebsiella pneumoniae [4]; [38]): 4 mg/L (≈ 8.78 µM) | MIC (Klebsiella pneumoniae [4]; [39]): 8 mg/L (≈ 17.6 µM) | MIC (Klebsiella pneumoniae [4]; [40]): 4 mg/L (≈ 8.78 µM) | MIC (Klebsiella pneumoniae [4]; [41]): 16 mg/L (≈ 35.1 µM) | MIC (Klebsiella pneumoniae [4]; [42]): 8 mg/L (≈ 17.6 µM) | MIC (Klebsiella pneumoniae [4]; [43]): 4 mg/L (≈ 8.78 µM) | MIC (Escherichia coli [5]; Strain No. 9 Escherichia coli): 8 mg/L (≈ 17.6 µM) | MIC (Escherichia coli [5]; Strain No. 10 Escherichia coli): 1 mg/L (≈ 2.2 µM) | MIC (Escherichia coli [5]; Strain No. 11 Escherichia coli): 4 mg/L (≈ 8.78 µM) | MIC (Escherichia coli [5]; Strain No. 12 Escherichia coli): 4 mg/L (≈ 8.78 µM) | MIC (Escherichia coli [5]; Strain No. 13 Escherichia coli): 4 mg/L (≈ 8.78 µM) | MIC (Escherichia coli [5]; Strain No. 14 Escherichia coli): 8 mg/L (≈ 17.6 µM) | MIC (Escherichia coli [5]; Strain No. 15 Escherichia coli): 4 mg/L (≈ 8.78 µM) | MIC (Escherichia coli [5]; Strain No. 16 Escherichia coli): 4 mg/L (≈ 8.78 µM) | MIC (Escherichia coli [5]; Strain No. 17 Escherichia coli): 4 mg/L (≈ 8.78 µM) | MIC (Escherichia coli [5]; Strain No. 19 Escherichia coli): 16 mg/L (≈ 35.1 µM) | MIC (Escherichia coli [5]; Strain No. 20 Escherichia coli): 4 mg/L (≈ 8.78 µM) | MIC (Escherichia coli [5]; Strain No. 23 Escherichia coli): 8 mg/L (≈ 17.6 µM) | MIC (Escherichia coli [5]; Strain No. 26 Escherichia coli): 4 mg/L (≈ 8.78 µM) | MIC (Escherichia coli [5]; Strain No. 30 Escherichia coli): 8 mg/L (≈ 17.6 µM) | MIC (Klebsiella oxytoca [6]; Strain No. 22 Klebsiella oxytoca, read-out: MIC, Concentration (tube broth dilution method)): 8 mg/L (≈ 17.6 µM) | MIC, Concentration (tube broth dilution method) (Klebsiella oxytoca [6]; [44]): 8.0 mg/L (≈ 17.6 µM) | MIC (Enterobacter cloacae [7]; Strain No. 28 Enterobacter cloacae, read-out: MIC, Concentration (tube broth dilution method)): 16 mg/L (≈ 35.1 µM) | MIC, Concentration (tube broth dilution method) (Enterobacter cloacae [7]; [45]): 16.0 mg/L (≈ 35.1 µM) | MIC (Proteus mirabilis [8]): 8 mg/L | MIC (Klebsiella pneumoniae [9]; [33]): 4 mg/L | MIC (Klebsiella pneumoniae [9]; [34]): 4 mg/L | MIC (Klebsiella pneumoniae [9]; [35]): 4 mg/L | MIC (Klebsiella pneumoniae [9]; [36]): 2 mg/L | MIC (Klebsiella pneumoniae [9]; [37]): 2 mg/L | MIC (Klebsiella pneumoniae [9]; [38]): 4 mg/L | MIC (Klebsiella pneumoniae [9]; [39]): 8 mg/L | MIC (Klebsiella pneumoniae [9]; [40]): 4 mg/L | MIC (Klebsiella pneumoniae [9]; [41]): 16 mg/L | MIC (Klebsiella pneumoniae [9]; [42]): 8 mg/L | MIC (Klebsiella pneumoniae [9]; [43]): 4 mg/L | MIC (Escherichia coli [10]; Strain No. 9 Escherichia coli): 8 mg/L | MIC (Escherichia coli [10]; Strain No. 10 Escherichia coli): 1 mg/L | MIC (Escherichia coli [10]; Strain No. 11 Escherichia coli): 2 mg/L | MIC (Escherichia coli [10]; Strain No. 12 Escherichia coli): 4 mg/L | MIC (Escherichia coli [10]; Strain No. 13 Escherichia coli): 4 mg/L | MIC (Escherichia coli [10]; Strain No. 14 Escherichia coli): 8 mg/L | MIC (Escherichia coli [10]; Strain No. 15 Escherichia coli): 2 mg/L | MIC (Escherichia coli [10]; Strain No. 16 Escherichia coli): 4 mg/L | MIC (Escherichia coli [10]; Strain No. 17 Escherichia coli): 4 mg/L | MIC (Escherichia coli [10]; Strain No. 19 Escherichia coli): 16 mg/L | MIC (Escherichia coli [10]; Strain No. 20 Escherichia coli): 4 mg/L | MIC (Escherichia coli [10]; Strain No. 23 Escherichia coli): 8 mg/L | MIC (Escherichia coli [10]; Strain No. 26 Escherichia coli): 4 mg/L | MIC (Escherichia coli [10]; Strain No. 30 Escherichia coli): 8 mg/L | MIC (Klebsiella oxytoca [11]; Strain No. 22 Klebsiella oxytoca): 8 mg/L | MIC, Concentration (gradient agar strip method) (Klebsiella oxytoca [11]; [44]): 8.0 mg/L | MIC (Enterobacter cloacae [12]; Strain No. 28 Enterobacter cloacae): 16 mg/L | MIC, Concentration (gradient agar strip method) (Enterobacter cloacae [12]; [45]): 16.0 mg/L
